# According to article PMC10726358 (Journal of Medicinal Chemistry, 2023):
# Experiments:
# Beta2 Adrenoceptor [1] = target: T1, Beta2 Adrenoceptor (Homo sapiens, UniProt P07550); experiment: Cross screening: Beta2 Adrenoceptor Antagonist; format: biochemical
# T1 construct: purchased GSK enhanced cross-screening panel (in-house)
# non-BET bromodomains = experiment: BROMOscan non-BET bromodomain panel; format: binding, human
# Experimental: (§1) The BRD4 BD1/BD2 TR-FRET assay had been used routinely for this optimization work, and in order to better understand the BET BD1 domain selectivity profile, 31 was tested in TR-FRET BRD2, BRD3, and BRDT assays.
# (§2) [52] BROMOscan recombinant protein binding assays were carried out at DiscoverX. (accessed April 4, 2023).
# [2] = target: T2, Acetylcholinesterase (AChE) (Homo sapiens, UniProt P22303); experiment: Cross screening: Acetylcholinesterase (AChE) antagonist; format: biochemical
# T2 construct: purchased GSK enhanced cross-screening panel (in-house)
# T2 sequence (P22303 32-614): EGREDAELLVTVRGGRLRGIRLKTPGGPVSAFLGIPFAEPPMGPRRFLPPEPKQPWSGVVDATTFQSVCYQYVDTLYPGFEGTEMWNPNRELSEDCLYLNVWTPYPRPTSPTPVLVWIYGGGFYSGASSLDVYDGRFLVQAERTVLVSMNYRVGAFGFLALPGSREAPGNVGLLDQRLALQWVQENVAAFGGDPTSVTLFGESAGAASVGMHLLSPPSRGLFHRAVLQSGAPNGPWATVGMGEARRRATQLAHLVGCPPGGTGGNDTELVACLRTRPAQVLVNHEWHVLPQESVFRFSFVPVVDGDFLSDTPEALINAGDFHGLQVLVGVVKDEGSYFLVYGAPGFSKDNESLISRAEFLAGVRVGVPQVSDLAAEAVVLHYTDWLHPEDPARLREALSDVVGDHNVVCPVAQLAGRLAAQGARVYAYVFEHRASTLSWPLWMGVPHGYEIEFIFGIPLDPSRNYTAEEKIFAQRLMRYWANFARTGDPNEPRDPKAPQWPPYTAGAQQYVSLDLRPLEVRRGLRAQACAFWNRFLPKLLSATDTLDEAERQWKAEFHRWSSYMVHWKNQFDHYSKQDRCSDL
# EP300 = target: T3, EP300 (Homo sapiens, UniProt Q09472); experiment: BROMOscan EP300; format: binding
# T3 construct: The broader non-BET bromodomain selectivity was also determined in the BROMOscan assay, with the closest off-target being EP300; purchased DiscoverX
# T3 sequence (Q09472 1049-1156 limits assumed): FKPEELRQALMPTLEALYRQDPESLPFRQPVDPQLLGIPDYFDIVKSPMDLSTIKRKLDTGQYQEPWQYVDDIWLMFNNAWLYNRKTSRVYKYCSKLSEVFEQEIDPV
# Experimental: as §1, §2
# [3] = Chromatographic LogD at pH 7.4
# BRD7 = target: T4, BRD7 (Homo sapiens, UniProt Q9NPI1); experiment: BROMOscan BRD7; format: binding
# T4 construct: ≥2000-fold selectivity over all 20 non-BET bromodomains tested; purchased DiscoverX
# T4 sequence (Q9NPI1 131-235 limits assumed): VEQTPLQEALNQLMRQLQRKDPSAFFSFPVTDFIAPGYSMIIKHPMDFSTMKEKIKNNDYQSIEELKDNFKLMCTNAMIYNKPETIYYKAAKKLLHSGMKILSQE
# Experimental: as §1, §2
# [4] = test system: pharmacologically relevant off-targets; experiment: GSK enhanced cross-screening panel (whole panel); conditions: no activity at the concentrations tested
# SMARCA2 = target: T5, SMARCA2 (Homo sapiens, UniProt P51531); experiment: BROMOscan SMARCA2; format: binding
# T5 construct: ≥2000-fold selectivity over all 20 non-BET bromodomains tested; purchased DiscoverX
# T5 sequence (P51531 1378-1506 limits assumed): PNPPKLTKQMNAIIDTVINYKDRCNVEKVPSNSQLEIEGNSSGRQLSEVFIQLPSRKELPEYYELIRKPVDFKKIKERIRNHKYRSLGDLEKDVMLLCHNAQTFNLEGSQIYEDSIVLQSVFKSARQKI
# Experimental: as §1, §2
# [5] = test system: Phospholipoidosis induction; experiment: Cross screening: Phospholipoidosis induction
# M1 = target: T6, M1 (Homo sapiens, UniProt P11229); experiment: Cross screening: M1 antagonist; format: biochemical
# T6 construct: purchased GSK enhanced cross-screening panel (in-house)
# T6 sequence (P11229 whole entry): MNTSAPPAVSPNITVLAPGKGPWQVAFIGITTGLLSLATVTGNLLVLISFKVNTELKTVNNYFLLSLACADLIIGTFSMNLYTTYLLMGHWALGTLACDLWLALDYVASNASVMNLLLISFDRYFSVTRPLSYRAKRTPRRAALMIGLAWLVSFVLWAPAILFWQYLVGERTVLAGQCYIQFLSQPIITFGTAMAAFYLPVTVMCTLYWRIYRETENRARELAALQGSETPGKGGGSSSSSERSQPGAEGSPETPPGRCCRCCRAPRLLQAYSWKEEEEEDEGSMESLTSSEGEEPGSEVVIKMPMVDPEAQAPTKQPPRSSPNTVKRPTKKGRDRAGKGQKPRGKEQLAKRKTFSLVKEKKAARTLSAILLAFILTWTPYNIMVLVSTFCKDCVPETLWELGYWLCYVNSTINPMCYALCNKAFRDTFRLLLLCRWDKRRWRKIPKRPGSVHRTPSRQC
# NMDA 1A/2B = target: T7, NMDA 1A/2B (Homo sapiens, UniProt Q05586+Q13224); experiment: Cross screening: NMDA 1A/2B antagonist; format: biochemical
# T7 construct: purchased GSK enhanced cross-screening panel (in-house)
# BRDT BD2 = BRDT BD2 (Homo sapiens, UniProt Q58F21); experiment: BROMOscan BRDT BD2; format: binding
# Experimental: as §1, §2
# 5-HT2C = target: T8, 5-HT2C (Homo sapiens, UniProt P28335); experiment: Cross screening: 5-HT2C Agonist; format: biochemical
# T8 construct: purchased GSK enhanced cross-screening panel (in-house)
# BRD2 BD1 = BRD2 BD1 (Homo sapiens, UniProt P25440); experiment: BROMOscan BRD2 BD1; format: binding
# Chain of BRD2 BD1 (P25440 74-180 limits assumed): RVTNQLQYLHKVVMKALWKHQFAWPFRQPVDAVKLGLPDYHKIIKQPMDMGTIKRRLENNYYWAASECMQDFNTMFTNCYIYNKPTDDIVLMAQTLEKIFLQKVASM
# Experimental: as §1, §2
# ATAD2B = target: T9, ATAD2B (Homo sapiens, UniProt Q9ULI0); experiment: BROMOscan ATAD2B; format: binding
# T9 construct: ≥2000-fold selectivity over all 20 non-BET bromodomains tested; purchased DiscoverX
# T9 sequence (Q9ULI0 951-1066 limits assumed): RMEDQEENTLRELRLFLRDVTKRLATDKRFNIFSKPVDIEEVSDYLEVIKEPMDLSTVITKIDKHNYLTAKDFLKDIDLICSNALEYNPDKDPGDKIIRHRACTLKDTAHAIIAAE
# Experimental: as §1, §2
# AR = target: T10, AR (Homo sapiens, UniProt P10275); experiment: Cross screening: AR Agonist; format: biochemical
# T10 construct: purchased GSK enhanced cross-screening panel (in-house)
# T10 sequence (P10275 whole entry): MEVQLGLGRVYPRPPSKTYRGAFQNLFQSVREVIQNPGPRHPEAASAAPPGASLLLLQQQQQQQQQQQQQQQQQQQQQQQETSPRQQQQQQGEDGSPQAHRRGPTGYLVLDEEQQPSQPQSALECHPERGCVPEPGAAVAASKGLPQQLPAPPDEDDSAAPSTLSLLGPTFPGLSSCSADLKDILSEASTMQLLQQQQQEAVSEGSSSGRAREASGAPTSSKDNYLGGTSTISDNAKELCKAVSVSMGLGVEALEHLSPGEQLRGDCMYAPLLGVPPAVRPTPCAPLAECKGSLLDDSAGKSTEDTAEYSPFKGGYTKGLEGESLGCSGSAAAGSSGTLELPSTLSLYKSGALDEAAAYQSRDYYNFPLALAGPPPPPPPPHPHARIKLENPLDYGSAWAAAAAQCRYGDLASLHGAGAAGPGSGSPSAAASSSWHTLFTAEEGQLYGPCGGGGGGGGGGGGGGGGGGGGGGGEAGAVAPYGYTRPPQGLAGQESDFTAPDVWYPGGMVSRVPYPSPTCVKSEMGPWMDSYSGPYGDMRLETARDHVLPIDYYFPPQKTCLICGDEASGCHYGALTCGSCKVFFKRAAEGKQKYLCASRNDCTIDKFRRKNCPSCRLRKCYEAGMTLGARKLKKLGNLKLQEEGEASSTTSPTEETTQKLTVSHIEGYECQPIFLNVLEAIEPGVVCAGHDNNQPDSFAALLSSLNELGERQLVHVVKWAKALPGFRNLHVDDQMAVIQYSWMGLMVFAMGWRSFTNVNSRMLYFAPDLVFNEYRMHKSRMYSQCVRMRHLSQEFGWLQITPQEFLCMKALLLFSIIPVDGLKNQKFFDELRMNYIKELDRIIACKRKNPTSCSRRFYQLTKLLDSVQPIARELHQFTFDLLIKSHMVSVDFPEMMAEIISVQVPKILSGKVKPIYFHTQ
# K1 = experiment: Cross screening: K1 Agonist; format: biochemical
# BRD2 BD2 = target: T11, BRD2 BD2 (Homo sapiens, UniProt P25440); experiment: BROMOscan BRD2 BD2; format: binding
# T11 construct: BRD2 BD2; purchased DiscoverX
# Experimental: as §1, §2
# OPRK1 = target: T12, OPRK1 (Homo sapiens, UniProt P41145); experiment: Cross screening: OPRK1 Agonist; format: biochemical
# T12 construct: purchased GSK enhanced cross-screening panel (in-house)
# T12 sequence (P41145 whole entry): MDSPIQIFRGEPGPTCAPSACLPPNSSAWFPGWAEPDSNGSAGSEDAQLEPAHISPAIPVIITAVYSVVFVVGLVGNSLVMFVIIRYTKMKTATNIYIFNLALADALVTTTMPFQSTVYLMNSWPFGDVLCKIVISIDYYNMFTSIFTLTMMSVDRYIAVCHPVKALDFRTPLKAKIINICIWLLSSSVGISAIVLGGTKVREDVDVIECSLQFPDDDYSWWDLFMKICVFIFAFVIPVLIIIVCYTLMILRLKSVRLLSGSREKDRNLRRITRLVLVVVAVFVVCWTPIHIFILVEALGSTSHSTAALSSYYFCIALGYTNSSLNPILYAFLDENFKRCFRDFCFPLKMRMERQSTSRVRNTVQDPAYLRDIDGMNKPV
# CECR2 = target: T13, CECR2 (Homo sapiens, UniProt Q9BXF3); experiment: BROMOscan CECR2; format: binding
# T13 construct: ≥2000-fold selectivity over all 20 non-BET bromodomains tested; purchased DiscoverX
# T13 sequence (Q9BXF3 434-538 limits assumed): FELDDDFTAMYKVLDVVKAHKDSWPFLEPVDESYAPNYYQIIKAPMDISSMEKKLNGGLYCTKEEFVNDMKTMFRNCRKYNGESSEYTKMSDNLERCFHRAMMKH
# Experimental: as §1, §2
# NK1 = target: T14, NK1 (Homo sapiens, UniProt P25103); experiment: Cross screening: NK1 antagonist; format: biochemical
# T14 construct: purchased GSK enhanced cross-screening panel (in-house)
# T14 sequence (P25103 whole entry): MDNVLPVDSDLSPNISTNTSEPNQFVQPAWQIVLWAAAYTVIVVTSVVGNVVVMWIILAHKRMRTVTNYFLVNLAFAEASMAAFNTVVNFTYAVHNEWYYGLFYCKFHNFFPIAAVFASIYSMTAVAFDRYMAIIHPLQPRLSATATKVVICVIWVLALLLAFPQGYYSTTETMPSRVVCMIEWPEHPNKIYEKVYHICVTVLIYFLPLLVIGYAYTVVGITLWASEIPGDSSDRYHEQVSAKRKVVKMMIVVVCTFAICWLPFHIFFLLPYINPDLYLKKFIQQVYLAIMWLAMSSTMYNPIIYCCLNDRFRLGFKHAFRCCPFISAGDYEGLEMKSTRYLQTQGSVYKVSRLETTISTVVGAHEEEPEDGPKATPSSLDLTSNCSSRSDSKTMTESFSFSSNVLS
# Alpha 1 nAChR = target: T15, Alpha 1 nAChR (Homo sapiens, UniProt P02708+P07510+Q07001); experiment: Cross screening: Alpha 1 nAChR Antagonist; format: biochemical
# T15 construct: purchased GSK enhanced cross-screening panel (in-house)
# BRD8 BD1 = target: T16, BRD8 BD1 (Homo sapiens, UniProt Q9H0E9); experiment: BROMOscan BRD8 BD1; format: binding
# T16 construct: BRD8 BD1; purchased DiscoverX
# T16 sequence (Q9H0E9 706-811 limits assumed): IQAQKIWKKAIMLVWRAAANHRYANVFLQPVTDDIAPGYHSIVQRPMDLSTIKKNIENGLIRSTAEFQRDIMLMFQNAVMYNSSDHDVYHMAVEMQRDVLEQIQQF
# Experimental: as §1, §2
# OATP1B1 = OATP1B1 (Homo sapiens, UniProt Q9Y6L6); experiment: Cross screening: OATP1B1 inhibitor
# Chain of OATP1B1 (Q9Y6L6 whole entry): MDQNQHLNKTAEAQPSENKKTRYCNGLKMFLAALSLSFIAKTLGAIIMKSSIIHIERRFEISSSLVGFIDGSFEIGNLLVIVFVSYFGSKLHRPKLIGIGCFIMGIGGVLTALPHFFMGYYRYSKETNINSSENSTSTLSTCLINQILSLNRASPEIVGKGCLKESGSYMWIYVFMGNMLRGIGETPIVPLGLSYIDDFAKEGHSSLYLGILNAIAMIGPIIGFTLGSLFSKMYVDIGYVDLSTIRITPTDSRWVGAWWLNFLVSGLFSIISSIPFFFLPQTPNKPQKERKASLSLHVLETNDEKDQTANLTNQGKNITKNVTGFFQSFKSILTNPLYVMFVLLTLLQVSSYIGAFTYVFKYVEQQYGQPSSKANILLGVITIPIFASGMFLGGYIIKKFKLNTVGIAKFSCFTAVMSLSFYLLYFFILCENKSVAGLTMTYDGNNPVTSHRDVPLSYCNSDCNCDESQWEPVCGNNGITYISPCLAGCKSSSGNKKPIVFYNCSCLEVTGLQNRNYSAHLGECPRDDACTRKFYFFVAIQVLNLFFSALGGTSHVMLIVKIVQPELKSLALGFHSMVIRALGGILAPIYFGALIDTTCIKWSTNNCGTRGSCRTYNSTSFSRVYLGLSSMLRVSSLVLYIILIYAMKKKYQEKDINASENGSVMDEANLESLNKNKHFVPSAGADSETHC
# Dopamine D2 = target: T17, Dopamine D2 (Homo sapiens, UniProt P14416); experiment: Cross screening: Dopamine D2 Agonist; format: biochemical
# T17 construct: purchased GSK enhanced cross-screening panel (in-house)
# Beta2 Adrenoceptor [6] = target: T1, Beta2 Adrenoceptor; experiment: Cross screening: Beta2 Adrenoceptor Human Agonist; format: biochemical
# BRDT BD1 [7] = target: T18, BRDT BD1 (Homo sapiens, UniProt Q58F21); experiment: BROMOscan BRDT BD1; format: binding
# Experimental: as §1, §2
# BRD1 = target: T19, BRD1 (Homo sapiens, UniProt O95696); experiment: BROMOscan BRD1; format: binding
# T19 construct: ≥2000-fold selectivity over all 20 non-BET bromodomains tested; purchased DiscoverX
# T19 sequence (O95696 562-666 limits assumed): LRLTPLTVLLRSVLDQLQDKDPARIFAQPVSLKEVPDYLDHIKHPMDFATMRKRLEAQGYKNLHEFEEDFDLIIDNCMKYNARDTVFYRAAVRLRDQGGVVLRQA
# Experimental: as §1, §2
# BRDT BD1 [8] = target: T18, BRDT BD1; experiment: BRDT BD1 TR-FRET assay; format: binding
# Experimental: as §1
# (§3) All TR-FRET and hWB cytokine assays have been described previously.[54]
# BRPF3 = target: T20, BRPF3 (Homo sapiens, UniProt Q9ULD4); experiment: BROMOscan BRPF3; format: binding
# T20 construct: ≥2000-fold selectivity over all 20 non-BET bromodomains tested; purchased DiscoverX
# T20 sequence (Q9ULD4 589-693 limits assumed): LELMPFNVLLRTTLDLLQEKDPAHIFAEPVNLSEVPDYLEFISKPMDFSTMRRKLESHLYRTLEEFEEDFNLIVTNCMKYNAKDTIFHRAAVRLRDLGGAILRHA
# Experimental: as §1, §2
# BRD4 BD1 = target: T21, BRD4 BD1 (Homo sapiens, UniProt O60885); experiment: BROMOscan BRD4 BD1; format: binding
# T21 construct: BRD4 BD1; purchased DiscoverX
# Experimental: as §1, §2
# BRD4 BD2 [9] = target: T22, BRD4 BD2 (Homo sapiens, UniProt O60885); experiment: BROMOscan BRD4 BD2; format: binding
# T22 construct: BRD4 BD2; purchased DiscoverX
# Experimental: as §1, §2
# BRD4 BD2 [10] = experiment: BRD4 BD2 TR-FRET assay; format: binding, human
# Experimental: As a strategic decision, every compound synthesized across all of GSK’s bromodomain research projects was tested in both a BRD4 BD1 and a BRD4 BD2 TR-FRET assay as part of tier 1 data generation. […] LipE is a straightforward, yet powerful metric for medicinal chemistry teams to normalize potency relative to lipophilicity, a critical factor both for parameters of the human dose equation and also for promiscuity.[43],[44] To aid interpretation, diagonal lines representing different LipE values are shown, with the most desirable space found toward the top left-hand area of the plot representing molecules with the comparatively highest potency per unit of lipophilicity.
# as §3
# MRGPRX2 = target: T23, MRGPRX2 (Homo sapiens, UniProt Q96LB1); experiment: Cross screening: MRGPRX2 Agonist; format: biochemical
# T23 construct: purchased GSK enhanced cross-screening panel (in-house)
# T1 sequence (P07550 whole entry): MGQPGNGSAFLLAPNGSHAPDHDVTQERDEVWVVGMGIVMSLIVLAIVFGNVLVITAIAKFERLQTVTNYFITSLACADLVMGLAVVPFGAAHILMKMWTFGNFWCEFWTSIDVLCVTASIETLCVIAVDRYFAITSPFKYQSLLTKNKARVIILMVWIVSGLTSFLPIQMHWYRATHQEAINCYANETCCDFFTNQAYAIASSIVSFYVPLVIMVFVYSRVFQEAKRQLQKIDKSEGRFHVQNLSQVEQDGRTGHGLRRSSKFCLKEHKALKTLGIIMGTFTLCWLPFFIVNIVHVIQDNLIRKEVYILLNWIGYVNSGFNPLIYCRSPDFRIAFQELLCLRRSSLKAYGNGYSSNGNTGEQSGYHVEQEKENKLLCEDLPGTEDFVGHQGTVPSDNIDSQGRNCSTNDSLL
smiles,measurement,setting,value
"Cc1cc(-c2nc3ccccc3n2C[C@@H]2CCCN(C(=O)C3CCN(C(C)C)CC3)C2)cn(C)c1=O [Compound 31, (S)-5-(1-((1-(1-Isopropylpiperidine-4-carbonyl)piperidin-3-yl)methyl)-1H-benzo [d]imidazole-2-yl)-1,3-dimethylpyridin-2(1H)-one]",pXC50 Beta2 Adrenoceptor Antagonist,Beta2 Adrenoceptor [1],< 4.0
same,selectivity over all non-BET bromodomains and broader liability targets tested,non-BET bromodomains,≥ 1200 fold
same,BROMOscan pKd 20 non-BET bromodomains,non-BET bromodomains; 20 non-BET bromodomains other than EP300,≤4.8
same,fold selectivity over 20 non-BET bromodomains,non-BET bromodomains; BROMOscan,≥2000 fold
same,pXC50 Acetylcholinesterase (AChE) antagonist,[2],< 4.0
same,BROMOscan pKd EP300,EP300,5.0
same,fold selectivity over EP300,"EP300; BROMOscan, compared to BRD4 BD1 pKd 8.1",1200 fold
same,PFI (property forecast index),[3]; chromLogDpH7.4 + number of aromatic rings,4.7
same,chromatographic logD,[3]; pH 7.4,1.7
same,Kd,BRD7,> 31.6 µM
same,XC50 in enhanced cross-screening panel,[4],> 25 µM
same,pXC50 in enhanced cross-screening panel,[4],< 4.6
same,Kd,SMARCA2,> 31.6 µM
same,pXC50 Phospholipoidosis induction,[5],< 4
same,pXC50 M1 antagonist,M1,< 4.3
same,pXC50 NMDA 1A/2B antagonist,NMDA 1A/2B,< 4.0
same,BROMOscan pKd BRDT BD2,BRDT BD2,5.5
same,pXC50 5-HT2C Agonist,5-HT2C,< 4.0
same,BROMOscan pKd BRD2 BD1,BRD2 BD1,8.5
same,fold selectivity BRD2 BD1 over BD2,BRD2 BD1; BROMOscan,1000 fold
same,Kd,ATAD2B,> 31.6 µM
same,pXC50 AR Agonist,AR,< 4.0
same,pXC50 K1 Agonist,K1,< 4.0
same,BROMOscan pKd BRD2 BD2,BRD2 BD2,5.5
same,pXC50 OPRK1 Agonist,OPRK1,< 4.0
same,Kd,CECR2,> 31.6 µM
same,pXC50 NK1 antagonist,NK1,< 4.6
same,pXC50 Alpha 1 nAChR Antagonist,Alpha 1 nAChR,< 4.2
same,Kd,BRD8 BD1,> 31.6 µM
same,pXC50 OATP1B1 inhibitor,OATP1B1,< 4.3
same,pXC50 Dopamine D2 Agonist,Dopamine D2,< 4.0
same,pXC50 Beta2 Adrenoceptor Human Agonist,Beta2 Adrenoceptor [6],< 4.0
same,BROMOscan pKd BRDT BD1,BRDT BD1 [7],8.1
same,fold selectivity BRDT BD1 over BD2,BRDT BD1 [7]; BROMOscan,400 fold
same,Kd,BRD1,> 31.6 µM
same,BRDT BD1 TR-FRET pIC50,BRDT BD1 [8],7.3
same,fold selectivity BRDT BD1 over BD2,BRDT BD1 [8]; TR-FRET,630 fold
same,Kd,BRPF3,> 31.6 µM
same,BROMOscan pKd BRD4 BD1,BRD4 BD1,8.1
same,fold selectivity BRD4 BD1 over BD2,BRD4 BD1; BROMOscan,316 fold
same,BROMOscan pKd BRD4 BD2,BRD4 BD2 [9],5.6
same,BRD4 BD2 FRET pIC50,BRD4 BD2 [10],4.8
same,pXC50 MRGPRX2 Agonist,MRGPRX2,< 4.0
